Values of other authors as cited in US10226421B2, “Pharmaceutical composition containing budesonide and formoterol” (Zambon S.P.A., priority 2013, dated 2019).

Details: phospholipids in the presence of a humidity

Question: For CCCCCCCCCCCCCCCC(=O)OC[C@H](COP(=O)([O-])OCC[N+](C)(C)C)OC(=O)CCCCCCCCCCCCCCC [DPPC, dipalmitoyl-phosphatidylcholine], which “glass-rubber transition temperatures (Tg)” value is on record?
Answer: 41 °C

Question: Which “glass-rubber transition temperatures (Tg)” value does the source give for CCCCCCCCCCCCCCCC(=O)OCC(COP(=O)(O)OCCN)OC(=O)CCCCCCCCCCCCCCC (stereo not drawn) [DPPE, dipalmitoyl-phosphatidylethanolamine] here?
Answer: 63 °C

Question: For CCCCCCCCCCCCCCCCCC(=O)OC[C@H](COP(=O)([O-])OCC[N+](C)(C)C)OC(=O)CCCCCCCCCCCCCCCCC [DSPC, distearoyl-phosphatidylcholine], which “glass-rubber transition temperatures (Tg)” value is on record?
Answer: 55 °C
